Assay results reported in patent publication US7435732B2, “Crystalline polymorphs of (3S)-N-hydroxy-4-({4-[-(4-hydroxy-2-butynyl)oxy]phenyl}sulfonyl)-2,2-dimethyl-3-thiomorpholine carboxamide” (Wyeth, priority 2004, dated 2008).
Where two headings read alike, the source gives them in different places. One block for each compound: values may come before it.

Tests used:
[1] = biological target: T1, TNF-α converting enzyme (TACE) (Homo sapiens, UniProt P78536); test: TACE inhibition in vitro; format: biochemical
[2] = test system: matrix metalloproteinase (MMP); conditions: cited from earlier work
TNF-α [3] = test: murine lipopolysaccharide (LPS) model; format: in vivo
[4] = biological target: T1, TNF-α converting enzyme (TACE); conditions: as described in U.S. Pat. No. 6,225,311; cited from earlier work
TNF-α [5] = test: primate lipopolysaccharide (LPS) model; format: in vivo
[6] = test system: human synovium tissue explants from patients suffering from rheumatoid arthritis; test: TNF-α secretion by human synovium tissue explants; format: cell-based
[7] = Solid form conversion under humidity / ambient conditions; format: physicochemical
Protocol: Polymorph form B is likely also an anhydrous form of apratastat. […] Form B disappears upon mild heating (e.g., at or above about 35° C.) under ambient humidity levels.

[8] = Solid form after open pan DSC heating, by powder XRD; format: physicochemical
Protocol: X-ray diffraction data (e.g., FIGS. 1, 4, 6 and 8) were collected using a Philips X'Pert PW-3040-MPD X-ray diffractometer (Philips, Bothell, Wash.) set at 40 kV and 40 mA. Data was collected as a continuous scan at 0.02°/sec. between […].
DSC data (e.g., FIG. 10) were collected using a TA Instruments DSC 2920 Differential Scanning Calorimeter (TA Instruments, New Castle, Del.). Measurements were carried out in both closed pan and open pan modes on about 5-35 mg samples. The heating profile was from 25° C. to 170° C. at 5° C./min, or 25° C. to 120° C. at 5° C./min with a ten minute holding time at 120° C., or 25° C. to 135° C. at 5° C./min with a five minute holding time at 135° C., or 25° C. to 150° C. at 5° C./min with a one minute holding time at 150° C.
A micronized sample of apratastat polymorph form A was subjected to three separate DSC experiments performed in the open pan mode as described in Example 5 above using the 120° C., 135° C., and 150° C. heating profiles. Each sample was cooled to ambient temperature and then recovered for powder X-ray diffraction (XRD) analysis as described in Example 2.
A milled sample of apratastat polymorph form A was subjected to similar DSC conditions.

T1 sequence (P78536 215-824, species assumed): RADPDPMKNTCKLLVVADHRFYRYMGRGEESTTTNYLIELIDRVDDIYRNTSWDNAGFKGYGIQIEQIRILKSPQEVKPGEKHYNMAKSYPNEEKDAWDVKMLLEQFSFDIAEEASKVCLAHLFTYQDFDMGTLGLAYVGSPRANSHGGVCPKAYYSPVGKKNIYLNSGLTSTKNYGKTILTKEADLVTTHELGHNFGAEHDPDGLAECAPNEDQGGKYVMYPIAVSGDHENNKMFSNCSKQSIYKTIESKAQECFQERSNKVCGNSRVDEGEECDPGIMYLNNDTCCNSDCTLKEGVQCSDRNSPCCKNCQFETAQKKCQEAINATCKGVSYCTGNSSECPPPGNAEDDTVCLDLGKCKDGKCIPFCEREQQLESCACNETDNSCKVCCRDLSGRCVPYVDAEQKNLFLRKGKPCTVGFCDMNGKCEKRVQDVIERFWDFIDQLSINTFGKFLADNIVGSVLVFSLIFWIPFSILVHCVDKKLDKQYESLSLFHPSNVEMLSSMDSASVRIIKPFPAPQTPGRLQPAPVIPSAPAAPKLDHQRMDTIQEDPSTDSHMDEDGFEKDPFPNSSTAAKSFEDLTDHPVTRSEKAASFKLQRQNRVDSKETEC

SMILES: CC1(C)SCCN(S(=O)(=O)c2ccc(OCC#CCO)cc2)[C@H]1C(=O)NO [apratastat, (3S)-N-hydroxy-4-({4-[(4-hydroxy-2-butynyl)oxy]phenyl}sulfonyl)-2,2-dimethyl-3-thiomorpholinecarboxamide]
inhibition of TACE [1]: potent, reversible, and competitive inhibitor | inhibition of MMP enzymes [2]: inhibitor | TNF-α inhibition (TNF-α [3]): potent TNF-α inhibitor | inhibition of TACE [4]: inhibitor | TNF-α inhibition (TNF-α [5]): potent TNF-α inhibitor | inhibition of TNF-α secretion [6]: inhibits TNF-α secretion

solid form stability under ambient conditions ([7]; ambient conditions, little or no energy input): can convert back to form A | solid form stability upon mild heating ([7]; at or above about 35° C., ambient humidity levels): disappears
SMILES: CC1(C)SCCN(S(=O)(=O)c2ccc(OCC#CCO)cc2)[C@H]1C(=O)NO [Form B, (3S)-N-hydroxy-4-({4-[(4-hydroxy-2-butynyl)oxy]phenyl}sulfonyl)-2,2-dimethyl-3-thiomorpholinecarboxamide]

XRD form after heating ([8]; micronized sample, 120° C. heating profile, open pan): Form C | XRD form after heating ([8]; micronized sample, 135° C. heating profile, open pan): Form C | XRD form after heating ([8]; micronized sample, 150° C. heating profile, open pan): Amorphous | XRD form after heating ([8]; milled sample, 120° C. heating profile): Form C + D | XRD form after heating ([8]; milled sample, 135° C. heating profile): Form C + D | XRD form after heating ([8]; milled sample, 150° C. heating profile): Form D
SMILES: CC1(C)SCCN(S(=O)(=O)c2ccc(OCC#CCO)cc2)[C@H]1C(=O)NO [apratastat polymorph form A, (3S)-N-hydroxy-4-({4-[(4-hydroxy-2-butynyl)oxy]phenyl}sulfonyl)-2,2-dimethyl-3-thiomorpholinecarboxamide]
solid form stability in low-moisture environment ([7]; about 4-5% relative humidity, at or near room temperature): a portion or all of the polymorph may convert to a new form (form B)
